In PubChem BioAssay AID1549 (Sanford-Burnham Center for Chemical Genomics, 2009):
The source made the active and inactive calls. How the calls were made is not given here.

Target: Influenza A virus M2 proton channel (A/TW/4845/1999 H1N1)
Assay: NMR binding screen, influenza A virus M2 proton channel, Kd (AID 1549)
Settings: M2 protein

| SMILES | Kd |
| --- | --- |
| CCOC(=O)c1cc(C)[nH]n1 | > 4 mM (inactive) |
| CC1SC(=NC(=O)c2ccncc2)NC1=O (stereo unspecified) | > 4 mM (inactive) |
| COc1ccc(-c2cc(=O)c3c(O)c(OC)c(O[C@H]4O[C@H](CO[C@@H]5O[C@@H](C)[C@H](O)[C@@H](O)[C@H]5O)[C@@H](O)[C@H](O)[C@H]4O)cc3o2)cc1 | > 4 mM (inactive) |
| C=CCCCCCCCCCCCC(O)CC(O)COC(C)=O (stereo unspecified) | > 4 mM (inactive) |
| CN1CCN(c2ccc(CN)cc2)CC1 | > 4 mM (inactive) |
| COc1cc(C(C)=O)cc(OC)c1O | > 4 mM (inactive) |
| O=C(O)c1ccc2nccnc2c1 | > 4 mM (inactive) |
| OCc1ccccc1N1CCOCC1 | > 4 mM (inactive) |
| CSc1n[nH]c(NCc2ccccc2)n1 | > 4 mM (inactive) |
| Cc1ccc(C(=O)N2CCC(C(=O)O)CC2)cc1 | > 4 mM (inactive) |
| O=C1CNC(=O)N1Cc1ccc(Br)cc1 | > 4 mM (inactive) |
| COc1cc(OC)cc(-c2nc(N)n[nH]2)c1 | > 4 mM (inactive) |
| OCc1cc(-c2cccs2)on1 | > 4 mM (inactive) |
| c1cncc(C2CCCCN2)c1 (stereo unspecified) | > 4 mM (inactive) |
| c1ccc(NCc2nc(-c3ccccc3)no2)cc1 | > 4 mM (inactive) |
| O=C(O)c1cc2ccccc2s1 | > 4 mM (inactive) |
| O=C(Cc1cccs1)Nc1ccccn1 | > 4 mM (inactive) |
| S=C(NC1CC1)NN1CCOCC1 | > 4 mM (inactive) |
| CN1C2CC3C[C@H]1C(O3)C2O (stereo partly specified) | > 4 mM (inactive) |
| CC1=C(C(=O)Nc2ccccc2)SCCO1 | > 4 mM (inactive) |
| Cc1occc(=O)c1O | > 4 mM (inactive) |

| SMILES | Kd |
| --- | --- |
| CS(C)=C1C(=O)NC(=O)N(Cc2ccc(F)cc2)C1=O | > 4 mM (inactive) |
| CC(=O)N1CC2(C)CN(C(C)=O)CC(C)(C1)C2O (stereo unspecified) | > 4 mM (inactive) |
| OCc1ccc(N2CCOCC2)cc1 | > 4 mM (inactive) |
| c1cnc(N2CCSCC2)nc1 | > 4 mM (inactive) |
| Cc1nc2ccc(C(=O)O)cc2nc1C | > 4 mM (inactive) |
| O=C(O)c1cnn2ccccc12 | > 4 mM (inactive) |
| c1ccc2[nH]c(SCc3cscn3)nc2c1 | > 4 mM (inactive) |
| CCOC(=O)c1[nH]c(C)cc1C | > 4 mM (inactive) |
| NC(=O)CN1CC(c2ccccc2)CC1=O (stereo unspecified) | > 4 mM (inactive) |
| C=C(C)C1Cc2c(ccc(C(=O)O)c2O)O1 (stereo unspecified) | > 4 mM (inactive) |
| Nc1cccc(C(=O)Nc2ccc(N)cc2Cl)c1 | > 4 mM (inactive) |
| NC(=O)C12CC3CC(C1)C(=O)C(C3)C2 | > 4 mM (inactive) |
| CC1CCC2(OC1)OC1CC3C4CCC5C[C@@H](O)CCC5(C)C4=CCC3(C)C1[C@@H]2C (stereo partly specified) | > 4 mM (inactive) |
| O=C(O)c1ccc(-c2ccccn2)s1 | > 4 mM (inactive) |
| CC(C)=CC(=O)Nc1ccccc1C(N)=O | > 4 mM (inactive) |
| O=C(CS(=O)(=O)c1ccccc1)N1CCCCCC1 | > 4 mM (inactive) |
| CC(=O)Nc1sc(C)c(C)c1C(N)=O | > 4 mM (inactive) |
| OCc1ccc(-c2ccccn2)s1 | > 4 mM (inactive) |
| COC(=O)[C@@H]1OC(=O)C2OC23[C@@]1(C)CCC1[C@]2(C)C(C[C@@H](O)[C@]13C)C(C)(C)[C@H](OC(C)=O)C[C@@H]2OC(C)=O (stereo partly specified) | > 4 mM (inactive) |
| CC(=O)NC(c1ccccc1)c1cccnc1 (stereo unspecified) | > 4 mM (inactive) |
| CS(=O)(=O)N1CCN(C(=O)c2ccccc2F)CC1 | > 4 mM (inactive) |

| SMILES | Kd |
| --- | --- |
| CCOC(=O)c1cc(C)n(C)n1 | > 4 mM (inactive) |
| C/C=C/c1ccc2c(c1)OCO2 | > 4 mM (inactive) |
| Cn1cnnc1SCCCNC(=O)Nc1ncccn1 | > 4 mM (inactive) |
| Cn1ccc(NC(=S)Nc2cccc([N+](=O)[O-])c2)n1 | > 4 mM (inactive) |
| COc1cc2ccc(=O)oc2c(OC)c1OC | > 4 mM (inactive) |
| COC(=O)c1cnccc1C(F)(F)F | > 4 mM (inactive) |
| Cc1ccccc1N1C(=O)CC(=O)NC1=O | > 4 mM (inactive) |
| CC12OC(=O)CC3C(C)(C)[C@H](O)C=C[C@]3(C)C1CC[C@]1(C)C2=CC(=O)O[C@H]1c1ccoc1 (stereo partly specified) | > 4 mM (inactive) |
| COc1cc2nc(N3CCNCC3)nc(N)c2cc1OC | > 4 mM (inactive) |
| C[C@H]1OC(O[C@H]2[C@@H](O)CC(O[C@H]3[C@@H](O)C[C@H](O[C@H]4CC[C@]5(C)C6CC[C@]7(C)[C@@H](C8=CC(=O)OC8)[C@@H](O)C[C@]7(O)[C@@H]6CC[C@@H]5C4)O[C@@H]3C)O[C@@H]2C)C[C@H](O)C1O (stereo partly specified) | > 4 mM (inactive) |
| Cc1ccc(S(=O)(=O)CC(=O)N2CCCC2)cc1 | > 4 mM (inactive) |
| CNc1nc(C)nc(-n2nc(C)cc2C)n1 | > 4 mM (inactive) |
| Clc1ccccc1OCc1nc(-c2ccncc2)no1 | > 4 mM (inactive) |
| Nc1ccc(S(=O)(=O)N2CCOCC2)cc1 | > 4 mM (inactive) |
| S=C(Nc1ccccc1)Nc1nncs1 | > 4 mM (inactive) |
| N#Cc1cc(-c2ccccc2)oc1N | > 4 mM (inactive) |
| O=C(O)c1csc(-c2cccs2)n1 | > 4 mM (inactive) |
| Cc1ccc(C(=O)Nc2ccncc2)o1 | > 4 mM (inactive) |
| O=c1ccc2nc3ccccc3c(=O)n2[nH]1 | > 4 mM (inactive) |
| NS(=O)(=O)c1ccc(NC(=O)/C=C\C(=O)O)cc1 | > 4 mM (inactive) |
| CC(=O)c1c(C)n([O-])c2ccccc2[n+]1=O | > 4 mM (inactive) |

| SMILES | Kd |
| --- | --- |
| FC(F)(F)c1nnc2ccc(N3CCOCC3)nn12 | > 4 mM (inactive) |
| O=C(O)Cn1cc(C(=O)c2cccs2)c2ccccc21 | > 4 mM (inactive) |
| O=C(c1ccco1)N1CCCN(C(=O)c2ccco2)CC1 | > 4 mM (inactive) |
| C[C@H]1C(=O)CCC2[C@]3(C)CC[C@@]4(C)C5CC(C)(C)CC[C@]5(C)CC[C@]4(C)C3CC[C@@]21C (stereo partly specified) | > 4 mM (inactive) |
| C[C@@H]1CC[C@@]2(OC1)O[C@H]1CC3C4CC[C@H]5C[C@@H](O)CC[C@]5(C)C4CC[C@]3(C)[C@H]1[C@@H]2C (stereo partly specified) | > 4 mM (inactive) |
| C[C@]12CCC3C(CC[C@]4(O)C[C@@H](O)CC[C@]34C=O)[C@@]1(O)CCC2C1=CC(=O)OC1 (stereo partly specified) | > 4 mM (inactive) |
| CC(=O)c1cccc(NC(=O)Nc2c(C)nn(C)c2C)c1 | > 4 mM (inactive) |
| Cc1ccc(C)c(C(=O)n2cnnc2N)c1 | > 4 mM (inactive) |
| C=C1C(=O)O[C@@H]2C[C@@]3(C)CCC[C@H](C)C3=C[C@H]12 | > 4 mM (inactive) |
| NC(=O)Cc1nc(-c2ccccc2)cs1 | > 4 mM (inactive) |
| COCc1c(CN)cnc(C)c1N | > 4 mM (inactive) |
| Nc1ncnc2c1ncn2C1O[C@H](COP(=O)(O)O)[C@@H](O)[C@H]1O (stereo partly specified) | > 4 mM (inactive) |
| O=C(NCc1ccccn1)c1ccc(Br)s1 | > 4 mM (inactive) |
| COC(=O)C[C@H]1C2(C)CC34OC5(C)O[C@@]6([C@H](OC(C)=O)C(OC(C)=O)[C@]7(C)C(/C(=C(/O)C(C)C)C(=O)O[C@H]7c7ccoc7)[C@@]6(O5)[C@H](OC(C)=O)[C@@]3(O)C2OC(=O)C(C)C)[C@]14C (stereo partly specified) | > 4 mM (inactive) |
| Cc1nnc(SCc2ccc(F)cc2)s1 | > 4 mM (inactive) |
| CC(=O)n1c(N)nc2ccccc21 | > 4 mM (inactive) |
| Nc1cccc(-c2cnco2)c1 | > 4 mM (inactive) |
| Cc1ccc2c(c1)CCCN2C(=O)c1c(C)noc1C | > 4 mM (inactive) |
